Counter-ions that a name gives are not always drawn.
molecular target: T1, S1P1 receptor (S1P1 expressing RH7777 membranes) (Homo sapiens, UniProt P21453); assay: S1P1 GTPγS assay; format: biochemical; conditions: S1P1 GTPγS assay, first format, [35S]-GTPγS 0.5 nM
T1 construct: expressed in transfected cells; host or cells: RH7777 cells (membranes)
Procedure: The potencies and efficacies of the compounds of this invention for the S1P1 receptor can be determined by GTPγS assay performed on the human cloned receptor as described herein.
Membrane preparation for S1P1 GTPγS assay
All steps were performed at 4° C. Cells were homogenised within a glass Waring blender for 2 bursts of 15 secs in 200 mls of buffer (50 mM HEPES, 1 mM leupeptin, 25 μg/ml bacitracin, 1 mM EDTA, 1 mM PMSF, 2 μM pepstatin A). The blender was plunged into ice for 5 mins after the first burst and 10-40 mins after the final burst to allow foam to dissipate. The material was then spun at 500 g for 20 mins and the supernatant spun for 36 mins at 48,000 g. The pellet was resuspended in the same buffer as above but without PMSF and pepstatin A. The material was then forced through a 0.6 mm needle, made up to the required volume, (usually x4 the volume of the original cell pellet), aliquoted and stored frozen at −80° C.
S1P1 expressing RH7777 membranes (1.5 μg/well) membranes (1.5 μg/well) were homogenised by passing through a 23 G needle. These were then adhered to WGA-coated SPA beads (0.125 mg/well) in assay buffer (HEPES 20 mM, MgCl2 10 mM, NaCl 100 mM and pH adjusted to 7.4 using KOH 5M). GDP 10 μM FAC and saponin 90 μg/ml FAC were also added
After 30 minutes precoupling on ice, the bead and membrane suspension was dispensed into white Greiner polypropylene LV 384-well plates (5 μl/well), containing […] of compound. 5 μl/well [^35S]-GTPγS (0.5 nM for S1P1 or 0.3 nM for S1P3 final radioligand concentration) made in assay buffer was then added to the plates. The final assay cocktail (10.1 μl) was then sealed, spun on a centrifuge, then read immediately on a Viewlux instrument.
Alternatively, after 30 minutes precoupling on ice, the bead and membrane suspension was mixed with ^35S]-GTPγS (0.5 nM final radioligand concentration) in assay buffer (HEPES 20 mM, MgCl2 10 mM, NaCl 100 mM and pH adjusted to 7.4 using KOH 5M) in a 1:1 ratio. The bead, membrane and radioligand suspension was dispensed into white Greiner polypropylene low volume 384-well plates (10 μl/well), containing 0.1 μl of a solution of test compound in 100% DMSO. The final assay cocktail (10.1 μl) was then sealed, spun on a centrifuge, then read immediately on a Viewlux instrument.

T1 sequence (P21453 whole entry): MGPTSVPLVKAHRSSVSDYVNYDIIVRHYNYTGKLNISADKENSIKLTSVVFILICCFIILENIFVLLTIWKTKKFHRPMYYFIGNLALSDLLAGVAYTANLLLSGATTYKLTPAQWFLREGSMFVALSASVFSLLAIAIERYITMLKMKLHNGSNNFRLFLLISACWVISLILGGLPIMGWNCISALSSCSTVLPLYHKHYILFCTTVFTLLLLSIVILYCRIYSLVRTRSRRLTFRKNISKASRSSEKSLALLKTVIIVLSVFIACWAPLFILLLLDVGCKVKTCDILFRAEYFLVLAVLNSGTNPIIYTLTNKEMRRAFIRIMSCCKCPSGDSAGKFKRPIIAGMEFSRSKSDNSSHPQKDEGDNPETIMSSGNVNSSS

With `Cc1c(-c2nnc(-c3ccc(OC(C)C)c(C#N)c3)s2)ccc2c1CCN(CC(O)CO)C2` (stereo not drawn) [Example 18, 5-{5-[2-(2,3-Dihydroxypropyl)-5-methyl-1,2,3,4-tetrahydro-6-isoquinolinyl]-1,3,4-thiadiazol-2-yl}-2-[(1-methylethyl)oxy]benzonitrile] as the compound, how does the EC50 read?
The EC50 was 2000 nM.

same assay, conditions: tested in one of the above S1P1 assays (two GTPγS formats)

`CC(C)Oc1ncc(-c2nc(-c3ccc4c(c3)CCN(CC(O)CO)CC4)no2)cc1C#N` (stereo in doubt) [Example 97, 5-(3-{3-[(2R)-2,3-dihydroxypropyl]-2,3,4,5-tetrahydro-1H-3-benzazepin-7-yl}-1,2,4-oxadiazol-5-yl)-2-[(1-methylethyl)oxy]-3-pyridinecarbonitrile] was tested. Which EC50 did it give?
The EC50 was at most 100 nM.

`CNC(=O)CCN1CCc2c(ccc(-c3nnc(-c4ccc(OC(C)C)c(C#N)c4)s3)c2C)C1` [Example 11, 3-[6-(5-{3-Cyano-4-[(1-methylethyl)oxy]phenyl}-1,3,4-thiadiazol-2-yl)-5-methyl-3,4-dihydro-2(1H)-isoquinolinyl]-N-methylpropanamide] was tested. Which EC50 did it give?
Its EC50 is at most 100 nM.

Which EC50 does the source give for `Cc1c(-c2nnc(-c3ccc(OC(C)C)c(C#N)c3)s2)ccc2c1CCN(CCC(=O)N(C)C)C2` [Example 12, 3-[6-(5-{3-Cyano-4-[(1-methylethyl)oxy]phenyl}-1,3,4-thiadiazol-2-yl)-5-methyl-3,4-dihydro-2(1H)-isoquinolinyl]-N,N-dimethylpropanamide] here?
Its EC50 is at most 100 nM.

How did the EC50 turn out when `Cc1c(-c2nnc(-c3ccc(OC(C)C)c(C#N)c3)s2)ccc2c1CCN(CCCC(N)=O)C2` [Example 13, 4-[6-(5-{3-Cyano-4-[(1-methylethyl)oxy]phenyl}-1,3,4-thiadiazol-2-yl)-5-methyl-3,4-dihydro-2(1H)-isoquinolinyl]butanamide] was run?
Its EC50 is at most 1000 nM.

`CNC(=O)CCCN1CCc2c(ccc(-c3nnc(-c4ccc(OC(C)C)c(C#N)c4)s3)c2C)C1` [Example 14, 4-[6-(5-{3-Cyano-4-[(1-methylethyl)oxy]phenyl}-1,3,4-thiadiazol-2-yl)-5-methyl-3,4-dihydro-2(1H)-isoquinolinyl]-N-methylbutanamide] was tested. Which EC50 did it give?
Its EC50 is at most 1000 nM.

For `Cc1c(-c2nnc(-c3ccc(OC(C)C)c(C#N)c3)s2)ccc2c1CCN(CCO)C2` [Example 15, 5-{5-[2-(2-Hydroxyethyl)-5-methyl-1,2,3,4-tetrahydro-6-isoquinolinyl]-1,3,4-thiadiazol-2-yl}-2-[(1-methylethyl)oxy]benzonitrile], which EC50 is on record?
Its EC50 is at most 100 nM.

Which EC50 does the source give for `Cc1c(-c2nnc(-c3ccc(OC(C)C)c(C#N)c3)s2)ccc2c1CCN(CCCO)C2` [Example 16, 5-{5-[2-(3-Hydroxypropyl)-5-methyl-1,2,3,4-tetrahydro-6-isoquinolinyl]-1,3,4-thiadiazol-2-yl}-2-[(1-methylethyl)oxy]benzonitrile] here?
Its EC50 is at most 1000 nM.

Which EC50 does the source give for `COCCN1CCc2c(ccc(-c3nnc(-c4ccc(OC(C)C)c(C#N)c4)s3)c2C)C1` [Example 17, 2-[(1-Methylethyl)oxy]-5-(5-{5-methyl-2-[2-(methyloxy)ethyl]-1,2,3,4-tetrahydro-6-isoquinolinyl}-1,3,4-thiadiazol-2-yl)benzonitrile hydrochloride] here?
Its EC50 is at most 1000 nM.

For `Cc1c(-c2nnc(-c3ccc(OC(C)C)c(C#N)c3)s2)ccc2c1CCN(CC(O)CO)C2` (stereo not drawn) [Example 18, 5-{5-[2-(2,3-Dihydroxypropyl)-5-methyl-1,2,3,4-tetrahydro-6-isoquinolinyl]-1,3,4-thiadiazol-2-yl}-2-[(1-methylethyl)oxy]benzonitrile], which EC50 is on record?
Its EC50 is over 10000 nM.

How did the EC50 turn out when `CC(C)Oc1ccc(-c2nc(-c3ccc4c(c3)CCN(CCO)CC4)no2)cc1C#N` [Example 19, 5-{3-[3-(2-Hydroxyethyl)-2,3,4,5-tetrahydro-1H-3-benzazepin-7-yl]-1,2,4-oxadiazol-5-yl}-2-[(1-methylethyl)oxy]benzonitrile] was run?
Its EC50 is at most 100 nM.

Which EC50 does the source give for `CC(C)Oc1ccc(-c2nc(-c3ccc4c(c3)CCN(CCCO)CC4)no2)cc1C#N` [Example 20, 5-{3-[3-(3-Hydroxypropyl)-2,3,4,5-tetrahydro-1H-3-benzazepin-7-yl]-1,2,4-oxadiazol-5-yl}-2-[(1-methylethyl)oxy]benzonitrile] here?
The EC50 was at most 100 nM.

`COCCN1CCc2ccc(-c3noc(-c4ccc(OC(C)C)c(C#N)c4)n3)cc2CC1` [Example 21, 2-[(1-Methylethyl)oxy]-5-(3-{3-[2-(methyloxy)ethyl]-2,3,4,5-tetrahydro-1H-3-benzazepin-7-yl}-1,2,4-oxadiazol-5-yl)benzonitrile] was tested. Which EC50 did it give?
Its EC50 is at most 100 nM.

Which EC50 does the source give for `CC(C)Oc1ccc(-c2nc(-c3ccc4c(c3)CCN(CC(O)CO)CC4)no2)cc1C#N` (stereo not drawn) [Example 27, 5-{3-[3-(2,3-Dihydroxypropyl)-2,3,4,5-tetrahydro-1H-3-benzazepin-7-yl]-1,2,4-oxadiazol-5-yl}-2-[(1-methylethyl)oxy]benzonitrile] here?
The EC50 was at most 100 nM.

Which EC50 does the source give for `CC(C)Oc1ccc(-c2nnc(-c3ccc4c(c3)CCN(CCO)CC4)s2)cc1C#N` [Example 28, 5-{5-[3-(2-Hydroxyethyl)-2,3,4,5-tetrahydro-1H-3-benzazepin-7-yl]-1,3,4-thiadiazol-2-yl}-2-[(1-methylethyl)oxy]benzonitrile hydrochloride] here?
The EC50 was at most 1000 nM.

Which EC50 does the source give for `CC(C)Oc1ccc(-c2nnc(-c3ccc4c(c3)CCN(CCCO)CC4)s2)cc1C#N` [Example 29, 5-{5-[3-(3-Hydroxypropyl)-2,3,4,5-tetrahydro-1H-3-benzazepin-7-yl]-1,3,4-thiadiazol-2-yl}-2-[(1-methylethyl)oxy]benzonitrile] here?
Its EC50 is at most 1000 nM.

For `COCCN1CCc2ccc(-c3nnc(-c4ccc(OC(C)C)c(C#N)c4)s3)cc2CC1` [Example 30, 2-[(1-Methylethyl)oxy]-5-(5-{3-[2-(methyloxy)ethyl]-2,3,4,5-tetrahydro-1H-3-benzazepin-7-yl}-1,3,4-thiadiazol-2-yl)benzonitrile hydrochloride], which EC50 is on record?
Its EC50 is at most 1000 nM.

For `CC(C)Oc1ccc(-c2nc(-c3cccc4c3CCN(CC(N)=O)CC4)no2)cc1C#N` [Example 31, 2-[6-(5-{3-Cyano-4-[(1-methylethyl)oxy]phenyl}-1,2,4-oxadiazol-3-yl)-1,2,4,5-tetrahydro-3H-3-benzazepin-3-yl]acetamide], which EC50 is on record?
Its EC50 is at most 1000 nM.

For `CC(C)Oc1ccc(-c2nc(-c3cccc4c3CCN(CCC(N)=O)CC4)no2)cc1C#N` [Example 32, 3-[6-(5-{3-Cyano-4-[(1-methylethyl)oxy]phenyl}-1,2,4-oxadiazol-3-yl)-1,2,4,5-tetrahydro-3H-3-benzazepin-3-yl]propanamide], which EC50 is on record?
Its EC50 is at most 1000 nM.

With `CC(C)Oc1ccc(-c2nc(-c3cccc4c3CCN(CCCO)CC4)no2)cc1C#N` [Example 33, 5-{3-[3-(3-Hydroxypropyl)-2,3,4,5-tetrahydro-1H-3-benzazepin-6-yl]-1,2,4-oxadiazol-5-yl}-2-[(1-methylethyl)oxy]benzonitrile] as the compound, how does the EC50 read?
The EC50 was at most 100 nM.

With `CC(C)Oc1ccc(-c2nc(-c3cccc4c3CCN(CCO)CC4)no2)cc1C#N` [Example 34, 5-{3-[3-(2-Hydroxyethyl)-2,3,4,5-tetrahydro-1H-3-benzazepin-6-yl]-1,2,4-oxadiazol-5-yl}-2-[(1-methylethyl)oxy]benzonitrile] as the compound, how does the EC50 read?
Its EC50 is at most 100 nM.

With `CC(C)Oc1ccc(-c2nc(-c3cccc4c3CCN(CC(O)CO)CC4)no2)cc1C#N` (stereo not drawn) [Example 35, 5-{3-[3-(2,3-Dihydroxypropyl)-2,3,4,5-tetrahydro-1H-3-benzazepin-6-yl]-1,2,4-oxadiazol-5-yl}-2-[(1-methylethyl)oxy]benzonitrile hydrochloride] as the compound, how does the EC50 read?
Its EC50 is at most 100 nM.

How did the EC50 turn out when `CC(C)Oc1ccc(-c2nnc(-c3cccc4c3CCN(CCO)C4)s2)cc1C#N` [Example 38, 5-{5-[2-(2-hydroxyethyl)-1,2,3,4-tetrahydro-5-isoquinolinyl]-1,3,4-thiadiazol-2-yl}-2-[(1-methylethyl)oxy]benzonitrile] was run?
Its EC50 is at most 1000 nM.

With `CNC(=O)CCN1CCc2c(cccc2-c2nnc(-c3ccc(OC(C)C)c(C#N)c3)s2)C1` [Example 45, 3-[5-(5-{3-cyano-4-[(1-methylethyl)oxy]phenyl}-1,3,4-thiadiazol-2-yl)-3,4-dihydro-2(1H)-isoquinolinyl]-N-methylpropanamide] as the compound, how does the EC50 read?
Its EC50 is over 10000 nM.

`CC(C)Oc1ccc(-c2nnc(-c3cccc4c3CCN(CCC(=O)N(C)C)C4)s2)cc1C#N` [Example 46, 3-[5-(5-{3-cyano-4-[(1-methylethyl)oxy]phenyl}-1,3,4-thiadiazol-2-yl)-3,4-dihydro-2(1H)-isoquinolinyl]-N,N-dimethylpropanamide] was tested. Which EC50 did it give?
Its EC50 is at most 1000 nM.

Which EC50 does the source give for `CC(C)Nc1ccc(-c2nc(-c3ccc4c(c3)CCN(CC(O)CO)CC4)no2)cc1C#N` (stereo not drawn) [Example 49, 5-{3-[3-(2,3-dihydroxypropyl)-2,3,4,5-tetrahydro-1H-3-benzazepin-7-yl]-1,2,4-oxadiazol-5-yl}-2-[(1-methylethyl)amino]benzonitrile] here?
The EC50 was at most 100 nM.

`CCCNc1ccc(-c2nc(-c3ccc4c(c3)CCN(CC(O)CO)CC4)no2)cc1C#N` (stereo not drawn) [Example 50, 5-{3-[3-(2,3-dihydroxypropyl)-2,3,4,5-tetrahydro-1H-3-benzazepin-7-yl]-1,2,4-oxadiazol-5-yl}-2-(propylamino)benzonitrile] was tested. Which EC50 did it give?
Its EC50 is at most 100 nM.
